{"source": "patent US10751380B2", "about": "“Compound and method for treating spasms, inflammation and pain” (priority 2018, dated 2020)", "key": {"[1]": {"conditions": "topical; cited from earlier work"}, "[2]": {"conditions": "mice, cited from earlier work"}, "[3]": {"conditions": "mice, oral administration; cited from earlier work"}, "[4]": {"conditions": "mice, subcutaneous; cited from earlier work"}, "[5]": {"molecular_target": "μ-subtype opioid receptor (MOR) (Homo sapiens, UniProt P35372)", "sequence (P35372 whole entry)": "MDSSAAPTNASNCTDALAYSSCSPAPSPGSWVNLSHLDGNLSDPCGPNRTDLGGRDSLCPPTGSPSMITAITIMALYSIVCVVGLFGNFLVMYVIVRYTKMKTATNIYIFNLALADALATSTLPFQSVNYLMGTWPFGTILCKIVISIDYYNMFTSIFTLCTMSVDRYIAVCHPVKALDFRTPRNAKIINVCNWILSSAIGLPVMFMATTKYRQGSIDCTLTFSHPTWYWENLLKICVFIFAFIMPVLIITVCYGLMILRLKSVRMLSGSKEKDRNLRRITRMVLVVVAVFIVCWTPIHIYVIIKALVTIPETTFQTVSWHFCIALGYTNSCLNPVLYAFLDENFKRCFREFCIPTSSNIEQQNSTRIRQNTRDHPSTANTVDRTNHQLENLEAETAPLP", "conditions": "cited from earlier work"}, "[6]": {"conditions": "20 mg of THC and 120 mg of codeine; cited from earlier work"}, "[7]": {"conditions": "cited from earlier work; for analgesic effect versus placebo: 5 mg of THC and 50 mg of codeine"}, "[8]": {"conditions": "by mouth, immediate-release formulation; cited from earlier work"}, "[9]": {"conditions": "cited from earlier work"}, "[10]": {"conditions": "cited from earlier work", "remark": "listed apart in the source"}, "[11]": {"conditions": "2 mg/mL; cited from earlier work"}, "[12]": {"conditions": "cited from earlier work", "remark": "listed apart in the source"}, "[13]": {"conditions": "cited from earlier work", "remark": "listed apart in the source"}, "[14]": {"conditions": "man, cited from earlier work"}, "[15]": {"conditions": "cited from earlier work", "remark": "listed apart in the source"}, "[16]": {"conditions": "cited from earlier work", "remark": "listed apart in the source"}, "[17]": {"conditions": "cited from earlier work", "remark": "listed apart in the source"}, "[18]": {"conditions": "cited from earlier work", "remark": "listed apart in the source"}, "[19]": {"conditions": "animal studies, compared with codeine; cited from earlier work"}, "[20]": {"assay": "Acute oral toxicity of THC in rats (Thompson 1973)", "conditions": "150 lb., female or male, respectively"}, "[21]": {"conditions": "cited from earlier work", "remark": "listed apart in the source"}, "[22]": {"conditions": "monkeys, up to 9000 mg/kg THC; cited from earlier work"}, "[23]": {"conditions": "cited from earlier work; for excretion: as acid metabolites"}, "[24]": {"conditions": "doses of 15 and 20 mg; cited from earlier work"}, "[25]": {"conditions": "50 mg of THC daily, P<0.01; cited from earlier work"}, "[26]": {"conditions": "oral, dissolved in sesame oil, cited from earlier work"}, "[27]": {"conditions": "of 750 courses of oral therapy; cited from earlier work"}, "[28]": {"conditions": "dogs, cited from earlier work"}}, "note": "“And” between values parts separate entries of the source, which are not always exact repeats. Identical values can stand only once. Like-named read-outs stand apart in the source and are kept apart here."}
{"smiles": "CCCCCc1cc(O)c2c(c1)OC(C)(C)c1ccc(C)cc1-2", "note": "[CBN, cannabinol]", "values": [{"measurement": "antagonism of TPA-induced erythema of skin", "setting": "[1]", "value": "least effective"}, {"measurement": "inhibition of PBQ-induced writhing", "setting": "[2]; doses higher than 10 mg/kg", "value": 40, "unit": "%"}]}
{"smiles": "CC[C@@H]1CN2CC[C@@]3(O)C(=Nc4cccc(OC)c43)[C@@H]2C[C@@H]1/C(=C\\OC)C(=O)OC", "note": "[7-hydroxymitragynine, (αE,2S,3S,7aS,12bS)-3-ethyl-1,2,3,4,6,7,7a,12b-octahydro-7a-hydroxy-8-methoxy-α-(methoxymethylene)-indolo[2,3-a]quinolizine-2-acetic acid methyl ester]", "values": [{"measurement": "analgesic potency relative to morphine", "setting": "[3]", "value": "thirteen times more potent analgesic than morphine"}, {"measurement": "gastrointestinal transit", "setting": "[4]", "value": "inhibition of the gastrointestinal transit"}, {"measurement": "activity at the μ-subtype opioid receptor (MOR)", "setting": "[5]", "value": "partial agonists"}]}
{"smiles": "CCCCCc1cc(O)cc(O)c1", "note": "[olivetol]", "values": [{"measurement": "dose of maximal effect in the PBQ test", "setting": "[2]", "value": "about 100 micrograms/kg"}]}
{"smiles": "C=C(C)[C@@H]1CCC(C)=C[C@H]1c1c(O)cc(CCCCC)cc1O", "note": "[CBD, cannabidiol]", "values": [{"measurement": "effectiveness at inhibition of PBQ-induced writhing among cannabinoids", "setting": "[2]; oral, 100 micrograms/kg", "value": "most effective"}]}
{"smiles": "COc1ccc2c3c1O[C@H]1[C@@H](O)C=C[C@H]4[C@@H](C2)N(C)CC[C@@]341", "note": "[codeine]", "values": [{"measurement": "analgesic effectiveness, THC versus codeine", "setting": "[6]", "value": "equally effective"}, {"measurement": "analgesic effect versus placebo", "setting": "[7]", "value": "analgesic effect in comparison with placebo"}]}
{"smiles": "COc1cccc(C2(O)CCCCC2CN(C)C)c1", "note": "(centres unmarked) [Tramadol]", "values": [{"measurement": "onset of pain relief", "setting": "[8]", "value": "within an hour"}]}
{"smiles": "CC(=O)Oc1cc(O[C@H](C)CCCc2ccccc2)cc2c1[C@@H]1C[C@H](O)CC[C@H]1[C@H](C)N2", "note": "[Levonantradol]", "values": [{"measurement": "analgesia versus placebo", "setting": "[9]; 1.5, 2, 2.5, 3 mg intermuscular, all doses, at least P<0.05, no dose-response", "value": "significantly superior to placebo"}, {"measurement": "patients reporting at least one side-effect", "setting": "[9]; human, in vivo", "value": 57, "unit": "%"}, {"measurement": "analgesia versus placebo", "setting": "[10]; human small RCTs", "value": "superior to placebo"}, {"measurement": "patients reporting sedation", "setting": "[10]; in vivo", "value": "almost half the patients"}]}
{"smiles": "CC[C@@H]1CN2CCc3c([nH]c4cccc(OC)c34)[C@H]2C[C@@H]1/C(=C\\OC)C(=O)OC", "note": "(stereo in doubt) [mitragynine, (aE,2S,3S,12bS)-3-ethyl-1,2,3,4,6,7,12,12b-octahydro-8-methoxy-α-(methoxymethylene)-indolo[2,3-a]quinolizine-2-acetic acid methyl ester]", "values": [{"measurement": "nerve conduction, compound nerve action potential", "setting": "[11]", "value": "blocked the nerve conduction, amplitude and duration of compound nerve action potential"}, {"measurement": "total drug release in in vitro dissolution", "setting": "[12]; simulated gastric fluid (SGF)", "value": "higher"}, {"measurement": "drug release in in vitro dissolution", "setting": "[12]; simulated intestinal fluid (SIF)", "value": "prolonged and incomplete"}, {"measurement": "2-deoxy-D-glucose-stimulated gastric acid secretion", "setting": "[13]; administration into fourth ventricle of anesthetized rats, reversed by naloxone", "value": "inhibition of 2-deoxy-D-glucose-stimulated gastric acid secretion in a dose dependent manner"}, {"measurement": "basal gastric acid secretion", "setting": "[13]; administration into the lateral ventricle", "value": "did not alter"}, {"measurement": "urine excretion of unchanged form", "setting": "[14]; 24-hour period", "value": 0.14, "unit": "%"}, {"measurement": "apparent volume of distribution", "setting": "[14]; oral Kratom tea, nine subjects", "value": "38.04 ± 24.32", "unit": "L/kg"}, {"measurement": "terminal half-life", "setting": "[14]; oral Kratom tea, nine subjects", "value": "23.24 ± 16.07", "unit": "h"}, {"measurement": "time to reach the maximum plasma concentration", "setting": "[14]; oral Kratom tea, nine subjects", "value": "0.83 ± 0.35", "unit": "h"}, {"measurement": "lethality", "setting": "[15]; rats, 200 mg/kg", "value": "lethal effects"}, {"measurement": "toxicity", "setting": "[15]; rodents, dose levels of 800-900 mg/kg", "value": "no toxicity"}, {"measurement": "water solubility", "setting": "[16]", "value": "< 100", "unit": "µg/mL"}, {"measurement": "pKa", "setting": "[17]; conventional UV", "value": "8.11±0.11"}, {"measurement": "pKa", "setting": "[17]; microplate reader determination", "value": "8.08±0.04"}, {"measurement": "activity at the μ-subtype opioid receptor (MOR)", "setting": "[5]", "value": "partial agonists"}, {"measurement": "log P", "setting": "[18]", "value": "1.73 and 1.70"}, {"measurement": "antinociceptive and cough-suppressant effects", "setting": "[19]", "value": "comparable to those of codeine"}]}
{"smiles": "CCCCCc1cc(O)c2c(c1)OC(C)(C)[C@@H]1CCC(C)=C[C@@H]21", "note": "[THC, (−)-(6aR,10aR)-6,6,9-trimethyl-3-pentyl-6a,7,8,10a-tetrahydro-6H-benzo[c]chromen-1-ol]", "values": [{"measurement": "LD50 scaled up to an adult human", "setting": "[20]", "value": "50 to 86", "unit": "g"}, {"measurement": "patients who experienced sedation", "setting": "[21]; 10 mg/m2", "value": "one-third"}, {"measurement": "patients with euphoria", "setting": "[21]; 10 mg/m2", "value": "majority of patients"}, {"measurement": "patients' self-reports of nausea and vomiting versus placebo", "setting": "[21]; 22 cancer patients resistant to conventional anti-emetics, oral", "value": "statistically superior to placebo"}, {"measurement": "death due to toxicity at maximum dose", "setting": "[22]", "value": "no cases of death"}, {"measurement": "excretion", "setting": "[23]; feces", "value": "65-80%"}, {"measurement": "bioavailability", "setting": "[23]; healthy adults", "value": "10-20%"}, {"measurement": "biological half-life", "setting": "[23]; in vivo", "value": "1.6-59 h"}, {"measurement": "metabolism", "setting": "[23]; in vivo", "value": "mostly hepatic by CYP2C"}, {"measurement": "bioavailability", "setting": "[23]; inhalation", "value": "10-35%"}, {"measurement": "absolute bioavailability", "setting": "[23]; oral administration, on an average", "value": 13, "unit": "%"}, {"measurement": "bioavailability", "setting": "[23]; oral", "value": "6-20%"}, {"measurement": "biological half-life", "setting": "[23]; orally administered dronabinol", "value": "25-36 h"}, {"measurement": "excretion", "setting": "[23]; urine", "value": "20-35%"}, {"measurement": "analgesia versus placebo", "setting": "[10]; human small RCTs", "value": "significantly superior to placebo"}, {"measurement": "time of peak analgesia", "setting": "[10]; human small RCTs", "value": "around 5 hours"}, {"measurement": "pain relief versus placebo", "setting": "[24]", "value": "significantly superior to placebo"}, {"measurement": "antagonism of TPA-induced erythema of skin", "setting": "[1]", "value": "least effective"}, {"measurement": "morphine requirement during active treatment", "setting": "[25]", "value": "significantly reduced"}, {"measurement": "LD50", "setting": "[26]; female rats", "value": 730, "unit": "mg/kg"}, {"measurement": "LD50", "setting": "[26]; male rats", "value": 1270, "unit": "mg/kg"}, {"measurement": "analgesic effectiveness, THC versus codeine", "setting": "[6]", "value": "equally effective"}, {"measurement": "poor or partial response", "setting": "[27]", "value": "approximately 65%"}, {"measurement": "dose at which maximally effective in the PBQ test", "setting": "[2]; dose that induced catalepsy", "value": 10, "unit": "mg/kg"}, {"measurement": "minimum lethal oral dose", "setting": "[28]; oral", "value": "more than 3 g/kg"}, {"measurement": "death due to toxicity at maximum dose", "setting": "[28]; up to 3000 mg/kg THC", "value": "no cases of death"}, {"measurement": "analgesic effect versus placebo", "setting": "[7]", "value": "analgesic effect in comparison with placebo"}, {"measurement": "effect on spasticity", "setting": "[7]; 5 mg of THC", "value": "significant effect on spasticity"}]}
